Source: patent US10588935B2, “FC receptor (FcRn) binding peptides and uses thereof” (THE BRIGHAM AND WOMEN'S HOSPITAL, INC., priority 2013, dated 2020)
Values joined by “and” are separate entries in the source; they are usually repeats but may differ in a detail not shown here. Identical values can stand only once. Like-named read-outs stand apart in the source and are kept apart here. Bridge positions count the residues as written; N and C are the ends. Peptide text beside a SMILES is read from it.

Target: T1, soluble human FcRn (Homo sapiens, UniProt P55899)
T1 construct: Soluble human FcRn was expressed and purified by Biogen-Idec as previously described (29)
Experiment: SPR (Biacore) affinity of peptides for immobilized soluble human FcRn
Assay type: binding
Experimental: SPR analyses were conducted using a Biacore 3000 or T100 instrument. Research-grade CM5 sensor chips and all coupling reagents for immobilization were purchased from Biacore. All proteins were cross-linked to the dextran surface of a CM5 sensor chip by standard amine coupling chemistry as recommended by Biacore. […] Binding experiments were performed at pH 6.0 or 7.4 using 50 mM phosphate, 100 mM sodium chloride and 0.01% surfactant P20. […] Bound albumin protein was then allowed to dissociate from the chip for 5 minutes with running buffer. Any remaining albumin was removed from the chip with a 60 second injection (2 cycles) of pH 8.0 Tris-HCl regeneration buffer (1 M Tris pH 8.0) at 25 μL/min flow rate. The binding responses recorded near the end of the association phase were plotted as a function of concentration. Equilibrium dissociation constants (KD), were derived from sensorgrams using the 1:1 binding model of BIAevaluation software 4.1.

[1] = Table 2, pH 6, immobilized shFcRn, data fit steady state or 2 site, read-out: Kd, pH 6** Biacore
[2] = Table 2, pH 7.4, data only 100 uM, therefore Kd may be higher, read-out: Kd, pH 7.4 Biacore
[3] = Table 1, pH 6, shFcRn immobilized on the sensor chip, steady state fit, read-out: Kd, pH 6** Biacore

SMILES | Kd Ratio 7.4/6.0 (Table 2) | further results
CC(=O)N[C@@H](CCCNC(=N)N)C(=O)N[C@@H](Cc1ccc(O)cc1)C(=O)N[C@@H](Cc1ccccc1)C(=O)N[C@H]1CSSC(C)(C)[C@@H](C(=O)N[C@@H](CCC(=O)O)C(=O)N[C@@H](CCC(=O)O)C(=O)N[C@H](C(N)=O)C(C)C)NC(=O)[C@H](Cc2c[nH]c3ccccc23)NC(=O)CNC(=O)[C@H](Cc2c[nH]cn2)NC(=O)[C@H](CCCCN)NC(=O)[C@H](Cc2c[nH]c3ccccc23)NC(=O)[C@H](CCCCN)NC(=O)[C@H]([C@@H](C)O)NC1=O [SYN1556] | – | Kd [3]: > 100000 nM
CC(=O)N[C@@H](CCCNC(=N)N)C(=O)N[C@@H](Cc1ccc(O)cc1)C(=O)N[C@@H](Cc1ccccc1)C(=O)N[C@@H]1C(=O)N[C@@H]([C@@H](C)O)C(=O)N[C@@H](CCCCN)C(=O)N[C@@H](Cc2c[nH]c3ccccc23)C(=O)N[C@@H](CCCCN)C(=O)N[C@@H](Cc2c[nH]cn2)C(=O)NCC(=O)N[C@@H](Cc2c[nH]c3ccccc23)C(=O)N[C@H](C(=O)N[C@@H](CCC(=O)O)C(=O)N[C@@H](CCC(=O)O)C(=O)N[C@H](C(N)=O)C(C)C)CSSC1(C)C [SYN1555] | – | Kd [3]: > 100000 nM
CSCC[C@@H]1NC(=O)[C@H](CCC(=O)O)NC(=O)[C@H](CCC(=O)O)NC(=O)[C@H](CC(=O)O)NC(=O)[C@H](Cc2c[nH]c3ccccc23)NC(=O)[C@H](Cc2c[nH]c3ccccc23)NC(=O)[C@@H](NC(=O)[C@H](CCCCN)NC(=O)[C@H](CCSC)NC(=O)[C@@H](NC(C)=O)C(C)C)CSSC[C@@H](C(=O)N[C@@H](CCC(=O)O)C(=O)N[C@@H](C)C(=O)N[C@@H](Cc2ccccc2)C(N)=O)NC(=O)[C@H](CC(C)C)NC1=O [SYN1538] (Ac-VMKCWWDEEMLCEAF-NH2; disulfide 4-12 (inferred)) | 71 | –
CSCC[C@H](NC(=O)[C@@H](NC(C)=O)C(C)C)C(=O)N[C@@H](Cc1c[nH]cn1)C(=O)N[C@H]1CSSC[C@@H](C(=O)N[C@@H](CCC(=O)O)C(=O)N[C@@H](CCC(N)=O)C(=O)NCC(N)=O)NC(=O)[C@H](CCCCN)NC(=O)[C@H](Cc2ccccc2)NC(=O)[C@H](CCC(=O)O)NC(=O)[C@H](CCC(=O)O)NC(=O)[C@H](CC(=O)O)NC(=O)[C@H](Cc2c[nH]c3ccccc23)NC(=O)[C@H](Cc2ccccc2)NC1=O [SYN1258] (Ac-VMHCFWDEEFKCEQG-NH2; disulfide 4-12 (inferred)) | 65 | –
CC(=O)N[C@@H](CCCNC(=N)N)C(=O)N[C@@H](Cc1ccc(O)cc1)C(=O)N[C@@H](Cc1ccccc1)C(=O)N[C@@H]1C(=O)N[C@@H]([C@@H](C)O)C(=O)N[C@@H](CCCCN)C(=O)N[C@@H](Cc2c[nH]c3ccccc23)C(=O)N[C@@H](CCCCN)C(=O)N[C@@H](Cc2c[nH]cn2)C(=O)NCC(=O)N[C@@H](Cc2c[nH]c3ccccc23)C(=O)N[C@H](C(=O)N[C@@H](CCC(=O)O)C(=O)N[C@@H](CCC(=O)O)C(=O)N[C@H](C(N)=O)C(C)C)C(C)(C)SSC1(C)C [SYN1557, Ac-RYF-Pen-TKWKHGW-Pen-EEV-CONH2] | – | Kd [3]: > 100000 nM
CSCC[C@H](NC(=O)[C@H](Cc1ccc(O)cc1)NC(C)=O)C(=O)N[C@H](C(=O)N[C@H]1CSSC[C@@H](C(=O)N[C@@H](C)C(=O)N[C@@H](Cc2ccc(O)cc2)C(=O)N[C@H](C(N)=O)C(C)C)NC(=O)[C@H](CO)NC(=O)[C@H](Cc2ccccc2)NC(=O)CNC(=O)[C@H](CC(=O)O)NC(=O)[C@H](CC(=O)O)NC(=O)[C@H](Cc2c[nH]c3ccccc23)NC(=O)[C@H](CCCCN)NC1=O)[C@@H](C)O [SYN1154] (Ac-YMTCKWDDGFSCAYV-NH2; disulfide 4-12 (inferred)) | 20 | Kd [1]: 1500 nM and 460 nM
CSCC[C@H](NC(=O)[C@H](C)NC(C)=O)C(=O)N[C@H](C(=O)N[C@H]1CSSC[C@@H](C(=O)N[C@@H](CCC(=O)O)C(=O)N[C@@H](Cc2ccc(O)cc2)C(=O)N[C@H](C(N)=O)C(C)C)NC(=O)[C@H](CO)NC(=O)[C@H](Cc2ccccc2)NC(=O)CNC(=O)[C@H](CC(=O)O)NC(=O)[C@H](CC(=O)O)NC(=O)[C@H](Cc2c[nH]c3ccccc23)NC(=O)[C@H](CCCCN)NC1=O)[C@@H](C)O [SYN1144] (Ac-AMTCKWDDGFSCEYV-NH2; disulfide 4-12 (inferred)) | 23.3 | –
CSCC[C@H](NC(=O)[C@H](Cc1ccc(O)cc1)NC(C)=O)C(=O)N[C@H](C(=O)N[C@H]1CSSC[C@@H](C(=O)N[C@@H](CCC(=O)O)C(=O)N[C@@H](Cc2ccc(O)cc2)C(N)=O)NC(=O)[C@H](CO)NC(=O)[C@H](Cc2ccccc2)NC(=O)CNC(=O)[C@H](CC(=O)O)NC(=O)[C@H](CC(=O)O)NC(=O)[C@H](Cc2c[nH]c3ccccc23)NC(=O)[C@H](CCCCN)NC1=O)[C@@H](C)O [SYN1164] (Ac-YMTCKWDDGFSCEY-NH2; disulfide 4-12 (inferred)) | – | Kd [1]: 570 ± 20 nM
CSCC[C@H](NC(=O)[C@@H](NC(C)=O)C(C)C)C(=O)N[C@@H](Cc1c[nH]cn1)C(=O)N[C@H]1CSSC[C@@H](C(=O)N[C@@H](CC(=O)O)C(=O)N[C@@H](CCC(N)=O)C(=O)NCC(N)=O)NC(=O)[C@H](CCCCN)NC(=O)[C@H](Cc2ccccc2)NC(=O)[C@H](CCC(=O)O)NC(=O)[C@H](CCC(=O)O)NC(=O)[C@H](CC(=O)O)NC(=O)[C@H](Cc2c[nH]c3ccccc23)NC(=O)[C@H](Cc2ccccc2)NC1=O [SYN1197] (Ac-VMHCFWDEEFKCDQG-NH2; disulfide 4-12 (inferred)) | 84 | –
CSCC[C@H](NC(=O)[C@@H](NC(C)=O)C(C)C)C(=O)N[C@@H](Cc1c[nH]cn1)C(=O)N[C@H]1CSSC[C@@H](C(=O)N[C@@H](CC(=O)O)C(=O)N[C@@H](CCC(N)=O)C(=O)NCC(N)=O)NC(=O)[C@H](CCCCN)NC(=O)[C@H](Cc2ccccc2)NC(=O)[C@H](C)NC(=O)[C@H](CCC(=O)O)NC(=O)[C@H](CC(=O)O)NC(=O)[C@H](Cc2c[nH]c3ccccc23)NC(=O)[C@H](Cc2ccccc2)NC1=O [SYN1216] (Ac-VMHCFWDEAFKCDQG-NH2; disulfide 4-12 (inferred)) | 52 | –
CSCC[C@H](NC(=O)[C@H](Cc1ccc(O)cc1)NC(C)=O)C(=O)N[C@@H](Cc1c[nH]cn1)C(=O)N[C@H]1CSSC[C@@H](C(=O)N[C@@H](CC(=O)O)C(=O)N[C@@H](CCC(N)=O)C(=O)NCC(N)=O)NC(=O)[C@H](CCCCN)NC(=O)[C@H](Cc2ccccc2)NC(=O)[C@H](CCC(=O)O)NC(=O)[C@H](CCC(=O)O)NC(=O)[C@H](CC(=O)O)NC(=O)[C@H](Cc2c[nH]c3ccccc23)NC(=O)[C@H](Cc2ccccc2)NC1=O [SYN1256] (Ac-YMHCFWDEEFKCDQG-NH2; disulfide 4-12 (inferred)) | 69 | –

Continued, in another order:

Kd Ratio 7.4/6.0 (Table 2) | SMILES | further results
61 | CSCC[C@H](NC(=O)[C@@H](NC(C)=O)C(C)C)C(=O)N[C@@H](CCCCN)C(=O)N[C@H]1CSSC[C@@H](C(=O)N[C@@H](CCCNC(=N)N)C(=O)N[C@@H](C)C(=O)N[C@@H](Cc2ccccc2)C(N)=O)NC(=O)[C@H](CC(C)C)NC(=O)[C@H](Cc2ccccc2)NC(=O)[C@H](CCC(=O)O)NC(=O)[C@H](CCC(=O)O)NC(=O)[C@H](CC(=O)O)NC(=O)[C@H](Cc2c[nH]c3ccccc23)NC(=O)[C@H](Cc2c[nH]c3ccccc23)NC1=O [SYN1536] (Ac-VMKCWWDEEFLCRAF-NH2; disulfide 4-12 (inferred)) | Kd [1]: 31 nM; Kd [2]: 1100 nM
34.4 | CSCC[C@H](NC(=O)[C@H](Cc1ccc(O)cc1)NC(C)=O)C(=O)N[C@@H](C)C(=O)N[C@H]1CSSC[C@@H](C(=O)N[C@@H](CCC(=O)O)C(=O)N[C@@H](Cc2ccc(O)cc2)C(=O)N[C@H](C(N)=O)C(C)C)NC(=O)[C@H](CO)NC(=O)[C@H](Cc2ccccc2)NC(=O)CNC(=O)[C@H](CC(=O)O)NC(=O)[C@H](CC(=O)O)NC(=O)[C@H](Cc2c[nH]c3ccccc23)NC(=O)[C@H](CCCCN)NC1=O [SYN1146] (Ac-YMACKWDDGFSCEYV-NH2; disulfide 4-12 (inferred)) | Kd [2]: 8600 nM
38 | CSCC[C@H](NC(=O)[C@H](Cc1ccc(O)cc1)NC(C)=O)C(=O)N[C@H](C(=O)N[C@H]1CSSC[C@@H](C(=O)N[C@@H](CCC(=O)O)C(=O)N[C@@H](Cc2ccc(O)cc2)C(=O)N[C@@H](C)C(N)=O)NC(=O)[C@H](CO)NC(=O)[C@H](Cc2ccccc2)NC(=O)CNC(=O)[C@H](CC(=O)O)NC(=O)[C@H](CC(=O)O)NC(=O)[C@H](Cc2c[nH]c3ccccc23)NC(=O)[C@H](CCCCN)NC1=O)[C@@H](C)O [SYN1156] (Ac-YMTCKWDDGFSCEYA-NH2; disulfide 4-12 (inferred)) | Kd [2]: 22000 nM
83 | CSCC[C@@H]1NC(=O)[C@H](CCC(=O)O)NC(=O)[C@H](CCC(=O)O)NC(=O)[C@H](CC(=O)O)NC(=O)[C@H](Cc2c[nH]c3ccccc23)NC(=O)[C@H](Cc2c[nH]c3ccccc23)NC(=O)[C@@H](NC(=O)[C@H](CCCCN)NC(=O)[C@H](CCSC)NC(=O)[C@@H](NC(C)=O)C(C)C)CSSC[C@@H](C(=O)N[C@@H](CCCNC(=N)N)C(=O)N[C@@H](Cc2ccc(O)cc2)C(=O)N[C@@H](Cc2ccccc2)C(N)=O)NC(=O)[C@H](CC(C)C)NC1=O [SYN1539] (Ac-VMKCWWDEEMLCRYF-NH2; disulfide 4-12 (inferred)) | Kd [2]: 8600 nM
2.2 | CSCC[C@H](NC(=O)[C@H](Cc1ccc(O)cc1)NC(C)=O)C(=O)N[C@H](C(=O)N[C@H]1CSSC[C@@H](C(=O)N[C@@H](CCC(=O)O)C(=O)N[C@@H](Cc2ccc(O)cc2)C(=O)N[C@H](C(N)=O)C(C)C)NC(=O)[C@H](CO)NC(=O)[C@H](Cc2ccccc2)NC(=O)CNC(=O)[C@H](C)NC(=O)[C@H](CC(=O)O)NC(=O)[C@H](Cc2c[nH]c3ccccc23)NC(=O)[C@H](CCCCN)NC1=O)[C@@H](C)O [SYN1150] (Ac-YMTCKWDAGFSCEYV-NH2; disulfide 4-12 (inferred)) | –
